Tested on: NC09 H1N1 virus
Assay type: in vivo
Conditions: unimmunized mice, 20 mg/kg/day

CCOC(=O)C1=C[C@@H](OC(CC)CC)[C@H](NC(C)=O)[C@@H](N)C1 [oseltamivir]
control of NC09 viral infection: but not NC09

— patent US20220362153A1, “COMPOSITIONS AND METHODS FOR PULMONARY SURFACTANT-BIOMIMETIC NANOPARTICLES” (priority 2019, published 2022)
